PubChem BioAssay AID248 (DTP/NCI, 2004)
Toxic doses and inconclusive results are not listed. No stated cut-off is given here; in the data, active means T/C of 150% or more; inactive means T/C below 125%.

Tested on: L1210 leukemia ip in BDF1 mice, survival T/C
Assay: NCI In Vivo Anticancer Drug Screen. Data for tumor model L1210 Leukemia (intraperitoneal) in B6D2F1 (BDF1) mice
Conditions: endpoint: mean survival time, higher = longer survival
How it was run: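 Value reflects the ratio of survival in compound-treated mice to survival in vehicle-treated controls, with both groups carrying the same transplanted tumor.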

[1] = dose: 100.0 mg/kg/injection, schedule: Q04DX003 (ip), vehicle: saline with Tween-80
[2] = dose: 200.0 mg/kg/injection, schedule: Q04DX003 (ip), vehicle: saline with Tween-80
[3] = dose: 400.0 mg/kg/injection, schedule: Q04DX003 (ip), vehicle: saline with Tween-80
[4] = dose: 25.0 mg/kg/injection, schedule: Q01DX009 (ip), vehicle: Klucel (hydroxypropylcellulose) (HPC)
[5] = dose: 50.0 mg/kg/injection, schedule: Q01DX009 (ip), vehicle: Klucel (hydroxypropylcellulose) (HPC)
[6] = dose: 100.0 mg/kg/injection, schedule: Q01DX009 (ip), vehicle: Klucel (hydroxypropylcellulose) (HPC)
[7] = dose: 100.0 mg/kg/injection, schedule: Q04DX003 (ip), vehicle: Klucel (hydroxypropylcellulose) (HPC)
[8] = dose: 200.0 mg/kg/injection, schedule: Q04DX003 (ip), vehicle: Klucel (hydroxypropylcellulose) (HPC)
[9] = dose: 400.0 mg/kg/injection, schedule: Q04DX003 (ip), vehicle: Klucel (hydroxypropylcellulose) (HPC)
[10] = dose: 100.0 mg/kg/injection, schedule: Q04DX002 (ip), vehicle: Klucel (hydroxypropylcellulose) (HPC)
[11] = dose: 200.0 mg/kg/injection, schedule: Q04DX002 (ip), vehicle: Klucel (hydroxypropylcellulose) (HPC)
[12] = dose: 400.0 mg/kg/injection, schedule: Q04DX002 (ip), vehicle: Klucel (hydroxypropylcellulose) (HPC)
[13] = dose: 200.0 mg/kg/injection, schedule: Q01DX009 (ip), vehicle: Klucel (hydroxypropylcellulose) (HPC)
[14] = dose: 50.0 mg/kg/injection, schedule: Q01DX001 (ip), vehicle: saline
[15] = dose: 100.0 mg/kg/injection, schedule: Q01DX001 (ip), vehicle: saline
[16] = dose: 200.0 mg/kg/injection, schedule: Q01DX001 (ip), vehicle: saline
[17] = dose: 400.0 mg/kg/injection, schedule: Q01DX001 (ip), vehicle: saline

Measured: T/C

COc1cc(C=Nc2ccc(Cl)cc2)ccc1O
inactive: dose: 100.0 mg/kg/injection, schedule: Q01DX009 (ip), vehicle: saline with Tween-80 97 % of control | [1] 120 % of control | dose: 200.0 mg/kg/injection, schedule: Q01DX009 (ip), vehicle: saline with Tween-80 94 % of control | [2] 96 % of control | dose: 400.0 mg/kg/injection, schedule: Q01DX009 (ip), vehicle: saline with Tween-80 101 % of control | [3] 103 % of control

CS(=O)c1nsc(S(C)=O)c1C#N (centres undefined)
inactive: dose: 12.5 mg/kg/injection, schedule: Q04DX002 (ip), vehicle: Klucel (hydroxypropylcellulose) (HPC) 122 % of control

CC1(C)OC2OC(COS(C)(=O)=O)C(O)C2O1 (centres undefined)
inactive: dose: 12.5 mg/kg/injection, schedule: Q01DX009 (ip), vehicle: Klucel (hydroxypropylcellulose) (HPC) 100 % of control | [4] 105 % of control | [5] 105 % of control | dose: 50.0 mg/kg/injection, schedule: Q04DX003 (ip), vehicle: Klucel (hydroxypropylcellulose) (HPC) 92 % of control | [6] 103 % of control | [7] 100 % of control | [8] 91 % of control | [9] 102 % of control

O=C(O)COc1ccc(Br)cn1
inactive: [10] 104 % of control | [11] 101 % of control | [12] 104 % of control

O=c1c2ccccc2sc2c(CO)ccc(NCCN3CCCCC3)c12
inactive: [5] 99 % of control | [6] 96 % of control | [13] 120 % of control

CN(C)Cc1c(C(O)(c2ccccc2)c2ccccc2)ccc2ccccc12
inactive: dose: 50.0 mg/kg/injection, schedule: Q01DX001 (ip), vehicle: carboxymethylcellulose (CMC) 90 % of control | dose: 100.0 mg/kg/injection, schedule: Q01DX001 (ip), vehicle: carboxymethylcellulose (CMC) 100 % of control | dose: 200.0 mg/kg/injection, schedule: Q01DX001 (ip), vehicle: carboxymethylcellulose (CMC) 96 % of control | dose: 400.0 mg/kg/injection, schedule: Q01DX001 (ip), vehicle: carboxymethylcellulose (CMC) 90 % of control

Cc1cnc2c(=O)[nH]c(N)nc2n1
inactive: dose: 25.0 mg/kg/injection, schedule: Q04DX002 (ip), vehicle: Klucel (hydroxypropylcellulose) (HPC) 97 % of control | dose: 50.0 mg/kg/injection, schedule: Q04DX002 (ip), vehicle: Klucel (hydroxypropylcellulose) (HPC) 113 % of control | [10] 100 % of control

N#CCC(=O)Nc1ccccc1
inactive: [6] 95 % of control | [10] 109 % of control | [13] 103 % of control | [11] 109 % of control | dose: 400.0 mg/kg/injection, schedule: Q01DX009 (ip), vehicle: Klucel (hydroxypropylcellulose) (HPC) 114 % of control | [12] 106 % of control

CCCCCCCCCCCCCCCCCCc1ccc(O)cc1O
inactive: [1] 89 % of control | [2] 92 % of control | [3] 86 % of control

Oc1c(Cl)cc(Cl)cc1CNCc1ccccc1
inactive: dose: 100.0 mg/kg/injection, schedule: Q01DX001 (ip), vehicle: other 93 % of control | dose: 100.0 mg/kg/injection, schedule: Q04DX003 (ip), vehicle: other 110 % of control | dose: 200.0 mg/kg/injection, schedule: Q01DX001 (ip), vehicle: other 94 % of control | dose: 200.0 mg/kg/injection, schedule: Q04DX003 (ip), vehicle: other 102 % of control | dose: 400.0 mg/kg/injection, schedule: Q01DX001 (ip), vehicle: other 90 % of control | dose: 400.0 mg/kg/injection, schedule: Q04DX003 (ip), vehicle: other 110 % of control

c1ccc(CC2NCCc3ccccc32)cc1 (centres undefined)
inactive: dose: 25.0 mg/kg/injection, schedule: Q04DX003 (ip), vehicle: acetone 102 % of control | dose: 25.0 mg/kg/injection, schedule: Q04DX003 (ip), vehicle: saline with Tween-80 99 % of control | dose: 50.0 mg/kg/injection, schedule: Q04DX003 (ip), vehicle: acetone 102 % of control | dose: 50.0 mg/kg/injection, schedule: Q04DX003 (ip), vehicle: saline with Tween-80 94 % of control | dose: 100.0 mg/kg/injection, schedule: Q01DX001 (ip), vehicle: acetone 89 % of control | dose: 100.0 mg/kg/injection, schedule: Q04DX003 (ip), vehicle: acetone 91 % of control | [1] 102 % of control

CC(CO)CCC1OC2CC3C4CCC5CC(O)CCC5(C)C4CCC3(C)C2C1C (centres undefined)
inactive: [10] 86 % of control | [11] 95 % of control | [12] 95 % of control

COc1ccc2c(C)c(C)[nH]c2c1
inactive: [14] 101 % of control | [15] 109 % of control | [16] 115 % of control | [17] 104 % of control

COc1ccc(OC(=O)Nc2cc([N+](=O)[O-])ccc2OC)cc1
inactive: [4] 89 % of control | [5] 96 % of control | [6] 88 % of control | [13] 88 % of control

CC(=O)Nc1nncs1
inactive: dose: 7.0 mg/kg/injection, schedule: Q03HX032 (ip), vehicle: saline with Tween-80 105 % of control | dose: 11.0 mg/kg/injection, schedule: Q03HX032 (ip), vehicle: saline with Tween-80 108 % of control | dose: 16.0 mg/kg/injection, schedule: Q03HX032 (ip), vehicle: saline with Tween-80 107 % of control | dose: 24.0 mg/kg/injection, schedule: Q03HX032 (ip), vehicle: saline with Tween-80 101 % of control | dose: 27.0 mg/kg/injection, schedule: Q01DX015 (ip), vehicle: saline with Tween-80 109 % of control | dose: 31.0 mg/kg/injection, schedule: Q01DX015 (ip), vehicle: carboxymethylcellulose (CMC) 96 % of control | dose: 36.0 mg/kg/injection, schedule: Q03HX032 (ip), vehicle: saline with Tween-80 108 % of control | dose: 40.0 mg/kg/injection, schedule: Q01DX015 (ip), vehicle: saline with Tween-80 95 % of control | [14] 112 % of control | dose: 60.0 mg/kg/injection, schedule: Q01DX015 (ip), vehicle: saline with Tween-80 97 % of control | dose: 62.0 mg/kg/injection, schedule: Q01DX015 (ip), vehicle: carboxymethylcellulose (CMC) 102 % of control | dose: 90.0 mg/kg/injection, schedule: Q01DX015 (ip), vehicle: saline with Tween-80 101 % of control | [15] 115 % of control | dose: 135.0 mg/kg/injection, schedule: Q01DX015 (ip), vehicle: saline with Tween-80 95 % of control | [16] 112 % of control | dose: 248.0 mg/kg/injection, schedule: Q01DX015 (ip), vehicle: carboxymethylcellulose (CMC) 98 % of control | dose: 270.0 mg/kg/injection, schedule: Q01DX001 (ip), vehicle: saline with Tween-80 101 % of control | dose: 400.0 mg/kg/injection, schedule: Q01DX001 (ip), vehicle: saline with Tween-80 109 % of control | [17] 106 % of control | dose: 600.0 mg/kg/injection, schedule: Q01DX001 (ip), vehicle: saline with Tween-80 112 % of control | dose: 900.0 mg/kg/injection, schedule: Q01DX001 (ip), vehicle: saline with Tween-80 109 % of control | dose: 1350.0 mg/kg/injection, schedule: Q01DX001 (ip), vehicle: saline with Tween-80 120 % of control

CCCCCCCCCCCCCCCCCCCCCCCCCCCCCC
inactive: [7] 93 % of control | [8] 89 % of control | [9] 89 % of control

O=C(Cc1ccc([N+](=O)[O-])cc1)Nc1cccc(O)c1
inactive: [7] 97 % of control | [8] 108 % of control | [9] 101 % of control
